Reference: patent publication US20160050895A1, “TRANSGENIC NON-HUMAN ORGANISMS WITH NON-FUNCTIONAL TSPO GENES” (AUSTRALIAN NUCLEAR SCIENCE AND TECHNOLOGY ORGANIZATION, priority 2013, published 2016)
“Also recorded” adds a separate entry of the source.

Legend:
TSPO [1] = biological target: T1, TSPO (Mus musculus, UniProt P50637); test: Film autoradiography of brain sections after facial nerve axotomy; type: binding; design: from tissue; host or cells: organs of living mice (adrenal gland, kidney, heart, liver, lung, brain); details: TSPO+/+ animals; after facial nerve axotomy
From the text: (§1) Procedures for facial nerve axotomy were approved by the animal ethics committee at the University of Sydney. Animals were anaesthetised using Isoflurane anaesthesia. Animals were monitored for a combination of respiration, heart rate, oxygen saturation and temperature during procedures using a variety of monitoring equipment to ensure anaesthetic depth. The surgical process commenced when foot-pad or plantar reflex could no longer be elicited. The fur on the ipsilateral (right) side of the neck was shaved from the ear downwards, and the skin cleaned using 70% ethanol. A small incision (0.5-0.7 cm in length) overlying the musculature covering the stylomastoid foramen was made. The facial nerve was identified, isolated and then transected completely. The skin of incision was closed with heal-glue. […] The animals were euthanized with CO2 3 days after the axotomy and brain tissue, including facial nerve nuclei in the brain stem and cerebellum, was immediately dissected, snap-frozen in liquid nitrogen, and then stored in −80° C. freezer until the cryostat section.
A small incision (0.5-0.7 cm) in the skin 0.5 cm dorsal and lateral to the ear was made and the facial nerve transected under an operating microscope. The incision was closed with 3M™ Vetbond™ Tissue Adhesive (St. Paul, Minn., USA). […] Mice were monitored carefully and euthanized with CO2 three days after the operation. […]

TSPO [2] = test: as above; type: binding, mouse; details: TSPO-/- mice
From the text: as §1
A small incision (0.5-0.7 cm) in the skin 0.5 cm dorsal and lateral to the ear was made and the facial nerve transected under an operating microscope. The incision was closed with 3M™ Vetbond™ Tissue Adhesive (St. Paul, Minn., USA). […] Mice were monitored carefully and euthanized with CO2 three days after the operation. Brains were dissected, placed in OCT, transferred to liquid nitrogen, and stored at −80° C. until cryo-sectioning.
Tissue sections from TSPO^+/+, TSPO^+/− and TSPO^−/− mice were incubated at room temperature for 20 min in 170 mM Tris-HCl pH 7.4 containing 1 nM [^3H]PK11195 (specific activity 84 Ci/mmol; Perkin Elmer, Waltham, Mass., USA), washed twice for 5 min in 170 mM Tris-HCl, rinsed with 3 dips in ice-cold MilliQ H2O, and dried. […] Displacement binding was carried out in the presence of PK11195 (10 μM), CLINDE (10 μM) and PBR-11 (10 μM).

TSPO [3] = biological target: T1, TSPO; test: Radioligand membrane saturation binding with 3H-PK11195; design: Snap-frozen tissues were sectioned at 20 μm in a cryostat; from tissue; host or cells: mouse organ sections (brain, retina/eye, heart, adrenal, kidney, testis, spleen), C57BL/6 background; details: testicular and kidney tissue; TSPO+/- mice compared to TSPO+/+ mice
Protocol: Tissue samples were homogenised with T25 digital Ultra-Turrax homogenizer (Ika, Wilmington, N.C., USA) at speed setting 5 or 20000 rpm in approximately 45 mL of ice-cold TRIS buffer (pH 7.4), collected by centrifugation at 48000 g and the supernatant was then discarded. The procedure was then immediately repeated, this acts as an extra wash step to remove any soluble interfering substances to radioligand binding (Byland et al. 1993). Following the second centrifugation and removal ofsupernatant the samples were resuspended in approximately 50 volumes of ice-cold TRIS buffer (pH 7.4). Samples were aliquoted stored in −80° C. until required.
For TSPO knock-out mice studies, radioligand binding was performed using 3H-PK11195 racemate across a range of concentrations (FIG. 4). PK11195 is a TSPO specific probe. Total and non-specific binding was determined through 8 concentrations of 3H-PK11195 ranging from 0.56 nM to 20 nM. Non-specific binding was determined by the addition of 5 μM PK11195 to all concentrations of 3H-PK11195. […]
Organs were homogenised, washed twice in ice-cold 50 mM Tris-HCl (pH 7.4) by centrifugation at 48000×g, resuspended in 50 volumes of ice-cold 50 mM Tris-HCl, and protein concentration was determined using a BCA protein assay kit (Thermo Fisher Scientific). […] Non-specific binding was determined with 5 μM PK11195. […]

In the case of `CC[C@@H](C)N(C)C(=O)c1cc2ccccc2c(-c2ccccc2Cl)n1` [[^3H]PK11195], the “TSPO ligand binding in the injured facial nucleus” value (TSPO [1]) is reported as “localised induction of TSPO ligand binding”, the “TSPO ligand binding in the injured facial nucleus” value (TSPO [2]; after facial nerve axotomy, activated microglia present) is reported as “no binding; also recorded: not associated with an increase in the binding” and the “selectivity in pathologically changed tissue” value (TSPO [2]; injured facial nucleus) is reported as “high selectivity; also recorded: holds true”. The “Specific binding using [3H]PK11195” value (TSPO [3]) was “approximately half the signal”.
